Assay results as given in ChEMBL document CHEMBL3797079, “Synergistic reduction of HIV-1 infectivity by 5-azacytidine and inhibitors of ribonucleotide reductase” (Bioorg Med Chem, 2016).
The source made the active and inactive calls. The rule behind the calls is not given here.

Legend:
[1] = system: Human immunodeficiency virus 1; test: Antiviral activity against VSV-G pseudotyped HIV-1 NL4-3 infected in human U373-MAGI cells assessed as reduction in U5-gag level at 5 to 200 nM measured at 6 to 12 hrs post infection by qPCR method; type: functional, organism-based
[2] = system: Human immunodeficiency virus 1; test: Antiviral activity against VSV-G pseudotyped HIV-1 NL4-3 infected in human U373-MAGI cells assessed as reduction in gag level at 50 or 100 nM measured at 72 hrs post infection by qPCR method; type: functional, organism-based
[3] = system: Human immunodeficiency virus 1; test: Antiviral activity against VSV-G pseudotyped HIV-1 NL4-3 infected in human U373-MAGI cells assessed as reduction in gag level at 5 to 200 nM measured at 6 to 12 hrs post infection by qPCR method; type: functional, organism-based
[4] = system: Human immunodeficiency virus 1; test: Antiviral activity against VSV-G pseudotyped HIV-1 NL4-3 infected in human U373-MAGI cells assessed as reduction in U5-gag level at 50 or 100 nM measured at 72 hrs post infection by qPCR method; type: functional, organism-based
[5] = target: Human immunodeficiency virus type 1 reverse transcriptase (Human immunodeficiency virus 1) (UniProt Q72547); test: Inhibition of HIV-1 reverse transcriptase assessed as inhibition of primer extension using 5' 32P-end-labeled 17-mer DNA/40-mer RNA as primer/template up to 1 mM measured after 5 mins by PAGE analysis

Structure (SMILES) | Activity [1] | Activity [2] | Activity [3] | Activity [4] | inhibition [5]
Cc1nnc(C(=O)NC(C)(C)c2nc(C(=O)NCc3ccc(F)cc3)c(O)c(=O)n2C)o1 | inactive | Active | inactive | Active | –
Nc1ncn([C@@H]2O[C@H](COP(=O)(O)OP(=O)(O)OP(=O)(O)O)[C@@H](O)[C@H]2O)c(=O)n1 | – | – | – | – | inactive
